Source: patent publication US20160207950A1, “ORGA[…]-2-CYANO-1-HYDROXYPROPAN-2-YL FOR USE AS ANTHELMINTICS” (UNIVERSITÄT ZÜRICH, priority 2013, published 2016)
Like-named read-outs stand apart in the source and are kept apart here.

How the values were obtained:
[1] = tested on: Trychostrongylus colubriformis; assay: Activity in vitro against Trichostrongylus colubriformis (egg hatch / larval development)
Protocol: (§1) Activity in Vitro against Haemonchus contortus & Trichostrongylus colubriformis (Gastrointestinal nematodes).
(§2) Freshly harvested and cleaned nematode eggs are used to seed a suitably formatted microplate containing the test substances to be evaluated for antiparasitic activity. Each compound is tested by serial dilution in order to determine its MED. The test compounds are diluted in nutritive medium allowing the full development of eggs through to 3rd instar larvae. The plates are incubated for 6 days at 28° C. and 60% relative humidity (RH). Egg-hatching and ensuing larval development are recorded to identify a possible nematocidal activity. Efficacy is expressed in percent reduced egg hatch, reduced development of L3, or paralysis & death of larvae of all stages.

[2] = tested on: human cervical cancer HeLa; assay: fluorometric cell viability assay (Resazurin), toxicity towards HeLa; type: cell-based; details: 2 days treatment
Protocol: Cell Culture: Human cervical carcinoma cells (HeLa) were cultured in DMEM (Gibco) supplemented with 5% fetal calf serum (FCS, Gibco), 100 U/ml penicillin, 100 μg ml streptomycin at 37° C. and 5% CO2. The normal human fetal lung fibroblast MRC-5 cell line was maintained in F-10 medium (Gibco) supplemented with 10% FCS (Gibco), 200 mmol/l L-Glutamine, 100 U/ml penicillin, and 100 μg/ml streptomycin at 37° C. and 5% CO2. Toestablish the anticancer potential of the compounds they were tested in one cell line, namely HeLa by a fluorometric cell viability assay using Resazurin (Promocell GmbH). Compounds showing cytotoxicity were then tested on normal MRC-5 cells. 1 day before treatment, cells were plated in triplicates in 96-well plates at a density of 4×10^3 cells/well in 100 μl for HeLa and 7×10^3 cells/well for MRC-5 cells. Cells were treated with increasing concentrations of the compounds for 2 days. After 2 days, medium and drug were removed and […] fresh medium containing Resazurin (0.2 mg/ml final concentration) were added. After 4 h of incubation at 37° C., the highly red fluorescent dye resorufin's fluorescence was quantified at 590 nm emission with 540 nm excitation wavelength in the SpectraMax M5 microplate Reader. […]

Haemonchus Contortus = assay: Activity in vitro against Haemonchus contortus (egg hatch / larval development)
Protocol: as §1, §2

C. elegans = C. elegans movement inhibition assay
Protocol: C. elegans movement inhibition assay: Asynchronous N2 C. elegans worms (Bristol) were maintained on nematode growth medium (NGM) agar, seeded with a lawn on OP50 E coli as a food-source, according to standard protocol (Maintenance of C. elegans; Stiernagle, T., Ed.; WormBook, 2006.). Worms were harvested from NGM plates by washing with M9 buffer (42 mmol/l Na2HPO4, 22 mmol/l KH2PO4, 86 mmol/l NaCl and 1 mmol/l MgSO4), aspiration and collection in a 10 mL tube (Falcon). The average number of worms in 5 μL of this suspension was calculated by transferring 4×5 μL aliquots to a glass slide (Menzel Glaser), and worms were enumerated under a compound microscope (Olympus CH30). To adjust the suspension to contain 1 worm per μL, M9 buffer was either added or removed after pelleting worms at 600× g for 30 sec.
Dilution of test compounds, Zolvix (monepantel) and DMSO for working stock solutions and 96 well plate set-up for liquid screen: A volume of 70 μL of M9 buffer was added to each well in a 96-well plate, using a multichannel pipettor. A volume of 20 μL of worm suspension was added to each well using a single-channel pipettor, with a trimmed pipette tip (increased aperture to minimize damage to worms). […]
Quantitative worm mobility scoring: Immobile worms were counted as a percentage of total worms in each well using an Olympus SZ30 dissecting microscope. […]

Row | Substance | Activity against Trychostrongylus colubriformis at 10 [mg/mL] [1] [%] | IC50 [2] [µM] | efficacy against dirofilaria immitis (in words) (Dirofilaria immitis) | Activity against Dirofilaria immitis at 10 [mg/mL] (Dirofilaria immitis; 10 mg/mL) [%] | Activity against Haemonchus Contortus at 10 [mg/mL] (Haemonchus Contortus) [%] | Activity against Trychostrongylus colubriformis at 10 [mg/mL] ([1]; listed as compound 1) | Activity against Trychostrongylus colubriformis at 10 [mg/mL] ([1]; listed as drawing 26) [%] | Number of L3 H. contortus/100 μM (H. contortus) | Activity against Haemonchus Contortus at 10 [mg/mL] (Haemonchus Contortus; listed as compound 1) | Activity against Haemonchus Contortus at 10 [mg/mL] (Haemonchus Contortus; listed as drawing 26) [%] | mobility of the C. elegans worms (in words) (C. elegans; 50 μM) | Mobility in C. elegans at 50 μM (C. elegans; 24 h incubation) [%]
1 | N-(2-cyano-1-(5-cyano-2-(trifluoromethyl)phenoxy)propan-2-yl)ruthenoceneamide [Compound 1a] | 0 | > 100 | moderate efficacy | 30 | 0 |  |  |  |  |  |  | 
2 | N-(2-cyano-1-(5-cyano-2-(trifluoromethyl)phenoxy)propan-2-yl)ferroceneamide [Compound 1] |  | 93.2 |  |  |  | up to 69% | 68 | >100 | up to 69% | 69 | significantly reduced | 2
